What was measured:
Cem/C1 T-cells = assay: Transwell migration of Cem/C1 T-cells through collagen type-IV; type: cell-based; settings: peptide, SDF-1
Description: FIGS. 4A-4H. […] Briefly, membranes from transwell migration chambers were coated with either native collagen type-IV or denatured collagen type-IV. T-cell variants were incubated with non-specific control peptide CP, or the RGDKGE (SEQ ID NO: 1)-containing collagen peptide (P2) and seed on the coated transwell membranes. T-cells were allowed to migrate in the presence or absence of SDF-1 added to the lower chamber for approximately 1.5 hours. Cell migration was quantified by counting the number of crystal violet stained cells that had migrated through to the underside of the coated membrane. FIG. 4A. Jurkat T-cell migration through denatured collagen type-IV in the presence of non-specific control peptide CP or RGDKGE (SEQ ID NO: 1)-containing collagen peptide P2 with SDF-1. FIG. 4B. […]
Given our new observations, and the fact that many tumor types as well as immunosuppressive macrophages can secrete the small soluble RGDKGE (SEQ ID NO: 1) collagen peptide, we next sought to determine whether this soluble collagen peptide could impact T-cell migration through denatured collagen type-IV, a critical ECM component shown to be selectively enriched in tumor vessels. […] Cell migration was quantified following staining cells with crystal violet (6,8). […]

[1] = system: primary murine CD8+ T-cells; assay: CD8+ T-cell polarization on denatured collagen type-IV (F-actin staining); type: cell-based; settings: denatured collagen type-IV coated slides, 1 hour, compared to CP
From the text: FIGS. 3A-3C. The RGDKGE (SEQ ID NO: 1)-containing collagen peptide P2 inhibits CD8+ T-cell polarization on denatured collagen type-IV. Briefly, microscopy slides were coated with denatured collagen type-IV to mimic the altered subendothelial basement membranes of tumor associated blood vessels. Murine primary CD8+ T-cells were isolated from mice bearing B16F10 melanomas and stimulated with either non-specific control peptide CP or the RGDKGE (SEQ ID NO: 1)-containing collagen peptide P2 and seeded on the coated slides. T-cells were allowed to incubate for 1 hour. Next slides were washed, fixed and stained with Rhodamine-labeled Phalloidin to mark F-actin. Cells were analyzed for morphological evidence of cell shape changes and polarized F-actin. FIG. 3A. Example of an enlarged image of CD8+ T-cell morphology following stimulation with either non-specific control peptide CP or the RGDKGE (SEQ ID NO: 1)-containing collagen peptide P2. FIG. 3B. Example of CD8+ T-cell morphology following stimulation with either non-specific control peptide CP or the RGDKGE (SEQ ID NO: 1)-containing collagen peptide P2. […] FIG. 3C. Quantification of the mean percentage of polarized CD8+ T-cells per 400× microscopic field. Data bars indicate mean percentage of polarized cells per 400× microscopic field from two independent experiments with 10 to 11 fields per treatment. *P<0.05. […]

αvβ3 = αvβ3 (Homo sapiens, UniProt P05106+P06756); settings: cited from earlier work
Chain of αvβ3 (P06756 31-889 limits assumed): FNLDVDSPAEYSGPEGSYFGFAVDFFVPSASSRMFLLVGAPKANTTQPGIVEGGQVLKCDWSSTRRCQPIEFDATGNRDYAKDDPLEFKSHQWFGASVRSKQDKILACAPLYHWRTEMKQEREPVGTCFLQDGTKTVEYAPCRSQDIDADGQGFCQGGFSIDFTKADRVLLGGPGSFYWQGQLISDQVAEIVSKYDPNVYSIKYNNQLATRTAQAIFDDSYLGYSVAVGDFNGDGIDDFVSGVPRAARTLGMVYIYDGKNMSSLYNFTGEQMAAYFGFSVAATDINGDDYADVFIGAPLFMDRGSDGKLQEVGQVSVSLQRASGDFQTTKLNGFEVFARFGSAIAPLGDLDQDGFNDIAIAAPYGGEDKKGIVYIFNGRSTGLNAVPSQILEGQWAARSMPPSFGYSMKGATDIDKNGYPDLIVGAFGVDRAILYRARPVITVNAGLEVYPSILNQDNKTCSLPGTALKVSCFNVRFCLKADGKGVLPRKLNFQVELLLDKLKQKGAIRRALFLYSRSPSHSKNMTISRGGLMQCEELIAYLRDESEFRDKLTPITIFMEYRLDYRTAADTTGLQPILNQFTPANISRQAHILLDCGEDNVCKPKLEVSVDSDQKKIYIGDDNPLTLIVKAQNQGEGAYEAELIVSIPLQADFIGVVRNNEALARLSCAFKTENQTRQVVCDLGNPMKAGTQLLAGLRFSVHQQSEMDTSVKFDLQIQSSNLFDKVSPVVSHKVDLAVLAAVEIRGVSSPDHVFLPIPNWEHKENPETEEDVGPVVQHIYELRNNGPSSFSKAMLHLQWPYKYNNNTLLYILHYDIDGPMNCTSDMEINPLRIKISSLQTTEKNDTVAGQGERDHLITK
Chain of αvβ3 (P06756 891-1048 partner limits assumed): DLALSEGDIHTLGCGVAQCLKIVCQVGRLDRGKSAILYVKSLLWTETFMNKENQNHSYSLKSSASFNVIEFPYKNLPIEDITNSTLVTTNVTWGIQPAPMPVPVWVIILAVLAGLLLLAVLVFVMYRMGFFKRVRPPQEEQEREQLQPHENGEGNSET
Chain of αvβ3 (P05106 27-788): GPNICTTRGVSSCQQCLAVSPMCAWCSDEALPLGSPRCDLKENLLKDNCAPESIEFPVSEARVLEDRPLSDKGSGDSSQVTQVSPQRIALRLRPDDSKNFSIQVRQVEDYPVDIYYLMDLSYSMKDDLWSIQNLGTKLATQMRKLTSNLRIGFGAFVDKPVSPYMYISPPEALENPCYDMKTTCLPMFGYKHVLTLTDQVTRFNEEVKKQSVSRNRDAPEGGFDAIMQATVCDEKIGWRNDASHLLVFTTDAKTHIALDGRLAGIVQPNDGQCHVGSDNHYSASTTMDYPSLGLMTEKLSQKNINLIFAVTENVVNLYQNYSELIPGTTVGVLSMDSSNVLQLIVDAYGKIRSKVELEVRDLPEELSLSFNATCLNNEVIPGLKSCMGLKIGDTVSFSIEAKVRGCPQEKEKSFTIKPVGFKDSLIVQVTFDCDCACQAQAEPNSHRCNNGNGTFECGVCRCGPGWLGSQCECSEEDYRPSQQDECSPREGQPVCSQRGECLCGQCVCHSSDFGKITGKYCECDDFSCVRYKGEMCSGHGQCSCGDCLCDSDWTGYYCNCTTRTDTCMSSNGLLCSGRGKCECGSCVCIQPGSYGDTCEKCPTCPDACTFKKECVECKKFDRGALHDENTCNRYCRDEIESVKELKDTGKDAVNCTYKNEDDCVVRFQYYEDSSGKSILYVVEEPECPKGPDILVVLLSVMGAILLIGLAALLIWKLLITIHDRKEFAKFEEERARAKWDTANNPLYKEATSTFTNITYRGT

In the case of “QGPRGDKGE (CQGPRGDKGEC; Synthetic: Synthetic collagen RGD containing peptide P-2) [Peptide P2, synthetic version of the soluble RGDKGE-containing collagen peptide]”, the “Cem/C1 T-cell migration” value (Cem/C1 T-cells; denatured collagen type-IV) is reported as “selectively inhibited”, the “Cem/C1 T-cell migration” value (Cem/C1 T-cells; native collagen type-IV) is reported as “neither the soluble RGDKGE (SEQ ID NO: 1) collagen peptide P2, nor the non-specific control peptide had any significant effect” and the “percentage of T-cells exhibiting a migratory and polarized morphological phenotype” value [1] is reported as “significant decrease”. For the same sequence, the “binding to αvβ3” value (αvβ3) was “bound”.

From patent US20240327506A1, “METHODS AND COMPOSITION FOR THE SELECTIVE ENHANCEMENT OF ADOPTIVE CELL THERAPY” (MaineHealth, priority 2023, published 2024)
